{"source": "patent US12077503B2", "about": "“Substituted cyclic amides and their use as herbicides” (FMC CORPORATION, priority 2015, dated 2024)", "assay_in_all_cases": "Test C preemergence", "assay_type_in_all_cases": "in vivo", "key": {"[1]": {"system": "velvetleaf (Abutilon theophrasti)", "conditions": "for Plant response rating, Velvetleaf: scale 0 to 100, 0 no effect, 100 complete control", "method_in_brief": "(§1)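 Herbicidal effect, applied preemergence to sown seeds or postemergence to 1- to 4-leaf plants, was scored visually 13 to 15 d after application, 0 to 100 versus controls.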"}, "[2]": {"system": "nutsedge, yellow (yellow nutsedge, Cyperus esculentus)", "conditions": "for Plant response rating, Nutsedge, Yellow: scale 0 to 100, 0 no effect, 100 complete control", "method_in_brief": "as §1"}, "[3]": {"system": "blackgrass (Alopecurus myosuroides)", "conditions": "for Plant response rating, Blackgrass: scale 0 to 100, 0 no effect, 100 complete control", "method_in_brief": "as §1"}, "[4]": {"system": "ryegrass, Italian (Italian ryegrass, Lolium multiflorum)", "conditions": "for Plant response rating, Ryegrass, Italian: scale 0 to 100, 0 no effect, 100 complete control", "method_in_brief": "as §1"}, "[5]": {"system": "lambsquarters (Chenopodium album)", "conditions": "for Plant response rating, Lambsquarters: scale 0 to 100, 0 no effect, 100 complete control", "method_in_brief": "as §1"}, "[6]": {"system": "pigweed (Amaranthus retroflexus)", "conditions": "for Plant response rating, Pigweed: scale 0 to 100, 0 no effect, 100 complete control", "method_in_brief": "as §1"}, "[7]": {"system": "barnyardgrass (Echinochloa crus-galli)", "conditions": "for Plant response rating, Barnyardgrass: scale 0 to 100, 0 no effect, 100 complete control", "method_in_brief": "as §1"}, "[8]": {"system": "crabgrass, large (large crabgrass, Digitaria sanguinalis)", "conditions": "for Plant response rating, Crabgrass, Large: scale 0 to 100, 0 no effect, 100 complete control", "method_in_brief": "as §1"}, "[9]": {"system": "Galium (catchweed bedstraw, Galium aparine)", "conditions": "for Plant response rating, Galium: scale 0 to 100, 0 no effect, 100 complete control", "method_in_brief": "as §1"}, "[10]": {"system": "foxtail, giant (giant foxtail, Setaria faberii)", "conditions": "for Plant response rating, Foxtail, Giant: scale 0 to 100, 0 no effect, 100 complete control", "method_in_brief": "as §1"}, "corn (Zea mays)": {"system": "corn (Zea mays)", "conditions": "for Plant response rating, Corn: scale 0 to 100, 0 no effect, 100 complete control", "method_in_brief": "as §1"}, "[11]": {"system": "johnsongrass (Sorghum halepense)", "conditions": "for Plant response rating, Johnsongrass: scale 0 to 100, 0 no effect, 100 complete control", "method_in_brief": "as §1"}, "[12]": {"system": "morningglory (Ipomoea coccinea)", "conditions": "for Plant response rating, Morningglory: scale 0 to 100, 0 no effect, 100 complete control", "method_in_brief": "as §1"}, "[13]": {"system": "wheat (winter wheat, Triticum aestivum)", "conditions": "for Plant response rating, Wheat: scale 0 to 100, 0 no effect, 100 complete control", "method_in_brief": "as §1"}, "[14]": {"system": "waterhemp (common waterhemp, Amaranthus rudis)", "conditions": "for Plant response rating, Waterhemp: scale 0 to 100, 0 no effect, 100 complete control", "method_in_brief": "as §1"}, "soybean (Glycine max)": {"system": "soybean (Glycine max)", "conditions": "for Plant response rating, Soybean: scale 0 to 100, 0 no effect, 100 complete control", "method_in_brief": "as §1"}, "[15]": {"system": "oilseed rape (Brassica napus)", "conditions": "for Plant response rating, Oilseed Rape: scale 0 to 100, 0 no effect, 100 complete control", "method_in_brief": "as §1"}, "[16]": {"conditions": "31 g ai/ha, 0 is no effect, 100 is complete control"}}}
{"smiles": "O=C1NCC(c2cc(F)cc(C(F)(F)F)c2)C1C(=O)Nc1cccc(F)c1F", "note": "(centres unmarked) [Compound 488]", "values": [{"measurement": "Plant response rating (scale of 0 to 100), Velvetleaf", "setting": "[1]; [16]", "value": 0}, {"measurement": "Plant response rating, Velvetleaf", "setting": "[1]; 62 g ai/ha", "value": 0}, {"measurement": "Plant response rating, Velvetleaf", "setting": "[1]; 125 g ai/ha", "value": 10}, {"measurement": "Plant response rating, Velvetleaf", "setting": "[1]; 250 g ai/ha", "value": 20}, {"measurement": "Plant response rating (scale of 0 to 100), Nutsedge, Yellow", "setting": "[2]; [16]", "value": 0}, {"measurement": "Plant response rating, Nutsedge, Yellow", "setting": "[2]; 62 g ai/ha", "value": 0}, {"measurement": "Plant response rating, Nutsedge, Yellow", "setting": "[2]; 125 g ai/ha", "value": 0}, {"measurement": "Plant response rating, Nutsedge, Yellow", "setting": "[2]; 250 g ai/ha", "value": 0}, {"measurement": "Plant response rating (scale of 0 to 100), Blackgrass", "setting": "[3]; [16]", "value": 0}, {"measurement": "Plant response rating, Blackgrass", "setting": "[3]; 62 g ai/ha", "value": 50}, {"measurement": "Plant response rating, Blackgrass", "setting": "[3]; 125 g ai/ha", "value": 90}, {"measurement": "Plant response rating, Blackgrass", "setting": "[3]; 250 g ai/ha", "value": 85}, {"measurement": "Plant response rating (scale of 0 to 100), Ryegrass, Italian", "setting": "[4]; [16]", "value": 5}, {"measurement": "Plant response rating, Ryegrass, Italian", "setting": "[4]; 62 g ai/ha", "value": 35}, {"measurement": "Plant response rating, Ryegrass, Italian", "setting": "[4]; 125 g ai/ha", "value": 70}, {"measurement": "Plant response rating, Ryegrass, Italian", "setting": "[4]; 250 g ai/ha", "value": 65}, {"measurement": "Plant response rating (scale of 0 to 100), Lambsquarters", "setting": "[5]; [16]", "value": 20}, {"measurement": "Plant response rating, Lambsquarters", "setting": "[5]; 62 g ai/ha", "value": 50}, {"measurement": "Plant response rating, Lambsquarters", "setting": "[5]; 125 g ai/ha", "value": 60}, {"measurement": "Plant response rating, Lambsquarters", "setting": "[5]; 250 g ai/ha", "value": 60}, {"measurement": "Plant response rating (scale of 0 to 100), Pigweed", "setting": "[6]; [16]", "value": 20}, {"measurement": "Plant response rating, Pigweed", "setting": "[6]; 62 g ai/ha", "value": 75}, {"measurement": "Plant response rating, Pigweed", "setting": "[6]; 125 g ai/ha", "value": 70}, {"measurement": "Plant response rating, Pigweed", "setting": "[6]; 250 g ai/ha", "value": 85}, {"measurement": "Plant response rating (scale of 0 to 100), Barnyardgrass", "setting": "[7]; [16]", "value": 95}, {"measurement": "Plant response rating, Barnyardgrass", "setting": "[7]; 62 g ai/ha", "value": 90}, {"measurement": "Plant response rating, Barnyardgrass", "setting": "[7]; 125 g ai/ha", "value": 95}, {"measurement": "Plant response rating, Barnyardgrass", "setting": "[7]; 250 g ai/ha", "value": 95}, {"measurement": "Plant response rating (scale of 0 to 100), Crabgrass, Large", "setting": "[8]; [16]", "value": 90}, {"measurement": "Plant response rating, Crabgrass, Large", "setting": "[8]; 62 g ai/ha", "value": 95}, {"measurement": "Plant response rating, Crabgrass, Large", "setting": "[8]; 125 g ai/ha", "value": 95}, {"measurement": "Plant response rating, Crabgrass, Large", "setting": "[8]; 250 g ai/ha", "value": 100}, {"measurement": "Plant response rating (scale of 0 to 100), Galium", "setting": "[9]; [16]", "value": 80}, {"measurement": "Plant response rating, Galium", "setting": "[9]; 62 g ai/ha", "value": 85}, {"measurement": "Plant response rating, Galium", "setting": "[9]; 125 g ai/ha", "value": 85}, {"measurement": "Plant response rating, Galium", "setting": "[9]; 250 g ai/ha", "value": 85}, {"measurement": "Plant response rating (scale of 0 to 100), Foxtail, Giant", "setting": "[10]; [16]", "value": 85}, {"measurement": "Plant response rating, Foxtail, Giant", "setting": "[10]; 62 g ai/ha", "value": 90}, {"measurement": "Plant response rating, Foxtail, Giant", "setting": "[10]; 125 g ai/ha", "value": 90}, {"measurement": "Plant response rating, Foxtail, Giant", "setting": "[10]; 250 g ai/ha", "value": 95}, {"measurement": "Plant response rating (scale of 0 to 100), Corn", "setting": "corn (Zea mays); [16]", "value": 25}, {"measurement": "Plant response rating, Corn", "setting": "corn (Zea mays); 62 g ai/ha", "value": 60}, {"measurement": "Plant response rating, Corn", "setting": "corn (Zea mays); 125 g ai/ha", "value": 70}, {"measurement": "Plant response rating, Corn", "setting": "corn (Zea mays); 250 g ai/ha", "value": 85}, {"measurement": "Plant response rating (scale of 0 to 100), Johnsongrass", "setting": "[11]; [16]", "value": 70}, {"measurement": "Plant response rating, Johnsongrass", "setting": "[11]; 62 g ai/ha", "value": 80}, {"measurement": "Plant response rating, Johnsongrass", "setting": "[11]; 125 g ai/ha", "value": 85}, {"measurement": "Plant response rating, Johnsongrass", "setting": "[11]; 250 g ai/ha", "value": 90}, {"measurement": "Plant response rating (scale of 0 to 100), Morningglory", "setting": "[12]; [16]", "value": 0}, {"measurement": "Plant response rating, Morningglory", "setting": "[12]; 62 g ai/ha", "value": 25}, {"measurement": "Plant response rating, Morningglory", "setting": "[12]; 125 g ai/ha", "value": 55}, {"measurement": "Plant response rating, Morningglory", "setting": "[12]; 250 g ai/ha", "value": 60}, {"measurement": "Plant response rating (scale of 0 to 100), Wheat", "setting": "[13]; [16]", "value": 35}, {"measurement": "Plant response rating, Wheat", "setting": "[13]; 62 g ai/ha", "value": 35}, {"measurement": "Plant response rating, Wheat", "setting": "[13]; 125 g ai/ha", "value": 85}, {"measurement": "Plant response rating, Wheat", "setting": "[13]; 250 g ai/ha", "value": 90}, {"measurement": "Plant response rating (scale of 0 to 100), Waterhemp", "setting": "[14]; [16]", "value": 25}, {"measurement": "Plant response rating, Waterhemp", "setting": "[14]; 62 g ai/ha", "value": 40}, {"measurement": "Plant response rating, Waterhemp", "setting": "[14]; 125 g ai/ha", "value": 75}, {"measurement": "Plant response rating, Waterhemp", "setting": "[14]; 250 g ai/ha", "value": 80}, {"measurement": "Plant response rating (scale of 0 to 100), Soybean", "setting": "soybean (Glycine max); [16]", "value": 0}, {"measurement": "Plant response rating, Soybean", "setting": "soybean (Glycine max); 62 g ai/ha", "value": 0}, {"measurement": "Plant response rating, Soybean", "setting": "soybean (Glycine max); 125 g ai/ha", "value": 0}, {"measurement": "Plant response rating, Soybean", "setting": "soybean (Glycine max); 250 g ai/ha", "value": 10}, {"measurement": "Plant response rating (scale of 0 to 100), Oilseed Rape", "setting": "[15]; [16]", "value": 40}, {"measurement": "Plant response rating, Oilseed Rape", "setting": "[15]; 62 g ai/ha", "value": 45}, {"measurement": "Plant response rating, Oilseed Rape", "setting": "[15]; 125 g ai/ha", "value": 85}, {"measurement": "Plant response rating, Oilseed Rape", "setting": "[15]; 250 g ai/ha", "value": 90}]}
